US20040175415A1, “Formulations and methods of delivery of intact tocopheryl succinate to humans” (priority 2003, published 2004)
Read-outs that look alike come from different tables or passages of the source.

What was measured:
[1] = room temperature raised to 40° C., man; cited from earlier work
[2] = DRI 2000, oral ingestion; cited from earlier work
colon cancer xenografts = settings: ip, 4 injections at 5 mg once every 3 days; cited from earlier work
[3] = system: chemical-induced forestomach cancer; settings: cited from earlier work
[4] = the Merck index; cited from earlier work
[5] = system: human breast cancer cells; settings: cited from earlier work
[6] = system: colon cancer cell xenografts; settings: ip, 5 injections of 10 mg/day for 10 days; p < 0.01; cited from earlier work
[7] = safety of TS treatment in the human subjects; format: in vivo; settings: human subjects of this study
Procedure: The hydrolyzed products of TS are tocopherol (vitamin E) and succinic acid, an endogenous metabolite produced during the oxidation of carbohydrates, amino acids and fat. The upper safety limit for vitamin E is set at 1000 mg or 1 gm by the most recent issue of DRI (Dietary Reference Intake) for vitamin C, vitamin E selenium and carotenoids. The DRI report was published in 2000 and one of the joint inventors of the present invention served on the committee from which the report was sponsored by the Institute of Medicine, US National Academy of Sciences (Chan et al. 2000). The upper dose limit claimed in the invention herein, is below or around the upper safety limit set at 1 gm by the Institute of Medicine for oral ingestion.

[8] = system: esterase in the digestive juice; settings: human (Howritt et al. 1984, Chessman et al. 1995); cited from earlier work
[9] = system: human prostate cancer cells; settings: cited from earlier work
[10] = system: several lines of cancer cells in culture; settings: prior to the induction of apoptosis; cited from earlier work
murine melanoma = settings: ip, 15 injections at 3 mg/mouse, cited from earlier work
[11] = intragastric 16 times at 1.25 g/kg
[12] = intragastric 16 times at 2.5 g/kg

## O=C(O)c1ccccc1O [salicylate]
[1]
  increase in dermal crossing: 3 fold

## Cc1c(C)c2c(c(C)c1O)CC[C@@](C)(CCC[C@H](C)CCC[C@H](C)CCCC(C)C)O2 [vitamin E, RRR-alpha-tocopherol]
[2]
  upper safety limit: 1000 mg

## tocopheryl succinate [TS]
Colon cancer xenografts
  reduction in tumor volume: 75% reduction in tumor volume
[3]; [11]
  reduction in tumor incident: 18%
  reduction in tumor volume: 63%
[3]; [12]
  reduction in tumor incident: 23%
  reduction in tumor volume: 81%
[3]; ip, 8 injections at 20 mg/kg
  less tumor incident: reduction in tumor volume & 50%
  reduction in tumor volume: ip treatments resulted in 84%
[4]
  solubility in vegetable oils: not readily soluble
[5]; ip injection
  angiogensis: ip injection also reduce
  expression of VEGF (vascular endothelial growth factor): angiogensis via the suppressing
[5]; ip, 7 injections at 3 mg/day
  reduction in tumor weight: ip injection resulted in 63%
[5]; sc, at 150 mg/kg per day
  effect on tumor with sc injections: no effect with sc injections.
[6]
  tumor volume: tumor volume reduced
[7]
  safety of treatment procedure: no concern regarding the safety
[8]
  fate after oral ingestion: convert to tocopherol
[9]
  expression of PSA (prostate specific antigen): strongly suppresses
  expression of the androgen receptors: inhibits
[10]
  cellular lysosomal disruption: major disruption
Murine melanoma
  proliferation: Treatment resulted in reduction of
Murine melanoma; p < 0.01
  tumor volume: Treatment resulted in reduction of
